One may read the bioavailability as the share of a dose that reaches the circulation, judged against a reference dose that is usually intravenous. Usually AUC(0-inf) stands for total exposure, with the tail of the curve extrapolated. Read a high AUC(0-inf) as more exposure. As a reminder, the Cmax is the highest concentration seen after dosing. By Tmax is commonly meant the time at which the peak concentration occurs. As a reminder, the clearance is a measure of how efficiently the substance is removed, as volume per time.

pIC50: −log10 of the molar value. Entries after “also recorded” stand apart in the source; their conditions may differ. Where two headings read alike, the source gives them in different places.

For series [1] the following is noted: rats, oral radiolabeled Elagolix; cited from earlier work.
The conditions of series [2]: mice, dose of 10 mg/kg; cited from earlier work.
For series [3] the following is noted: monkeys; cited from earlier work.
For series [4] the following is noted: rats; cited from earlier work.
For series [5] the following is noted: human bodies; cited from earlier work.
The test system of series [6] is serum luteinizing hormone (LH). Put plainly: Pharmacodynamic assay in male emasculated cynomolgus monkeys (serum LH). The format is in vivo. The protocol:
Three male cynomolgus monkeys (purchased from Guangxi GuiDong Quadrumana Development & Laboratory Co., Ltd.), 3 to 5 years old (weight 3.8 to 4.0 kg), were fasted overnight and underwent bilateral orchiectomy under anesthesia. Serum luteinizing hormone (LH) was measured in the cynomolgus monkeys from 3 to 7 weeks after emasculation using radioimmunoassay.
After successful emasculation surgical modeling, G201 and Elagolix Sodium (dissolvent: 0.5% CMC-Na) were given in 2 administration cycles by single oral gavage at doses of 10 mg/kg and 30 mg/kg, respectively, both in a volume of 10 mL/kg. Each administration cycle was separated by an elution period of approximately 2 weeks. For each cycle of administration, blood was collected before and 0.25, 0.5, 1, 2, 3, 6, 8 and 24 h after administration, respectively, and serum was separated for gonadal hormone LH assay.

The target in series [7] is T1, recombinant human gonadotropin-releasing hormone receptor (GnRHR) (Homo sapiens, UniProt P30968).
T1 construct: expressed in transfected cells
T1 sequence (P30968 1-328): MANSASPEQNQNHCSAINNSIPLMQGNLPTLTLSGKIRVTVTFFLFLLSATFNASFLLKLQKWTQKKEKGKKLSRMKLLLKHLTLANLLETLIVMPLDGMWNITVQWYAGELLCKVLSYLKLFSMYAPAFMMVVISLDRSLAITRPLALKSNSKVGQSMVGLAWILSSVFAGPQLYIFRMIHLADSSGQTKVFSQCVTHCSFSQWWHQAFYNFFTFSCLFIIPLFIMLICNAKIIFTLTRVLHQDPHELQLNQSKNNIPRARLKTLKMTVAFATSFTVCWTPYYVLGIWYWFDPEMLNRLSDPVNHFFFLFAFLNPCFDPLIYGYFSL
Nature of the series: FLIPR calcium flux assay in CHO-K1/GNRHR/Gα15 cells. The following applies: Buserelin EC80 agonist, read-out: EC50, inhibition of intracellular calcium release. The format is cell-based. Here is the method:
Intracellular calcium changes of cell line CHO-K1/GNRHR/Gα15 that is stable of a recombinant human gonadotropin-releasing hormone receptor (GnRHR) were measured using an FLIPR calcium flux assay kit (Calcium 4 assay kit). GnRHR is a G protein-coupled receptor (GPCRs), and a GPCRs signal enabled intracellular calcium release through a Gq pathway. Therefore, functional changes of GnRHR, which carried out signal transduction through the Gq pathway, can be detected by detecting intracellular calcium release with a calcium-sensitive fluorescent probe. The assay steps were as follows: • 1. Cells were seeded in 384-well plates (Corning, Cat #:3764) at a density of 10,000 cells/well with an F12+10% FBS medium (20 μl/well) and cultured overnight (18 h). • 2. A dye working solution was prepared from a probenecid stock solution (500 mM) and a Calcium 4 stock solution mixed at 1:100. A sample to be tested G201 and Elagolix (2 mM in DMSO) was diluted with an assay buffer, specifically, 5 μl of 2 mM stock solution was taken and diluted to 200 μl (50 μM) to obtain a 5× sample working solution of a first concentration. 20 μl of the 5× sample working solution was taken and diluted to 200 μl, and after even mixing, a sample working solution of a second concentration was obtained. A total of eight gradient dilutions of sample working solutions were prepared respectively. […]
For orientation: Calcium assays in cells follow changes in intracellular calcium, usually with a dye or a luminescent sensor.

A short description of series [8]: Rat pharmacokinetic assay. In kind it is in vivo. The following applies: SD rats; for F (absolute bioavailability) / bioavailability: oral gavage 50 mg/kg vs intravenous 25 mg/kg; for bioavailability / AUC(0-inf) / Cmax / Tmax / AUC(0-t) / clearance / Vd: female, rat, plasma; for bioavailability: SD, oral, 50 mg/kg, read-out: F (absolute bioavailability); for AUC(0-t): read-out: AUC0-24 h; for clearance: read-out: CLz (clearance rate) (converted); for Vd: read-out: Vz (apparent volume of distribution). Here is the method: 12 female SD rats, divided into four groups of three per group, were administrated G201 (dissolved in saline containing 5% N,N-dimethylacetamide and 5% cremophor ELL) and Elagolix Sodium (dissolved directly in saline) intravenously and by gavage at doses of 25 mg/kg and 50 mg/kg, respectively. Food was fasted overnight before administration and resumed 4 h after administration, with free access to water throughout the assay period. Blood was collected from the retro-orbital venous plexus before and 5, 15, 30 min, 1, 2, 4, 6, 8, 24 h after administration, and the volume of blood collected was approximately 0.2 mL. A whole blood sample centrifuged at 4000 rpm for 10 min within 1 h from collection. The upper layer of plasma was separated and stored in a refrigerator at minus 20° C. within 1 h until analysis. After the plasma sample were precipitated by methanolic protein at 1:8, G201 and Elagolix plasma concentrations were measured by an LC-MS/MS method, and main pharmacokinetic parameters were calculated by applying DAS3.2.7 software.

A short description of series [9]: Mouse pharmacokinetic assay. In kind it is in vivo. To be noted: ICR mice. The protocol:
10 female ICR mice, divided into two groups of five per group, were administrated G201 intravenously and by oral gavage, respectively, at a dose of 10 mg/kg. Blood was collected from the retro-orbital venous plexus 0.083, 0.25, 0.5, 1, 2, 4, 6, 8 h after administration, and the volume of blood collected was approximately 0.1 mL. A blood sample was centrifuged at 4000 rpm for 10 min within 1 h. The upper layer of plasma was separated and stored in a refrigerator at minus 80° C. within 1 h to be measured. The subject animals were fasted for at least 12 h before blood collection and were not water fasted. Food and water were fasted during blood collection and free 2 h after administration. The plasma concentration of G201 in the ICR mice was measured by an LC-MS/MS method, and main pharmacokinetic parameters were calculated by applying DAS 3.2.7 pharmacokinetic software and include AUC0-4, AUC0-∞, Cmax, t1/2, etc.

Where [10] appears, read: female, mouse, plasma, intravenous injection 10 mg/kg.
The mark [11] stands for this setting: female, mouse, plasma, oral administration 10 mg/kg.

Regarding `COc1cccc(-c2c(C)n(Cc3c(F)cccc3C(F)(F)F)c(=O)n(C[C@H](NCCCC(=O)[O-])c3ccccc3)c2=O)c1F.[Na+]` [Elagolix, Sodium R-(+)-4-{2-[5-(2-Fluoro-3-methoxyphenyl)-3-(2-fluoro-6-[trifluoromethyl]-benzyl)-4-methyl-2,6-dioxo-3,6-dihydro-2H-pyrimidin-1-yl]-1-phenylethylamino}butyrate], the “total radioactivity excreted through the bile” value in series [1] is on record as around 50%. Besides, the absolute bioavailability in series [2] is 10%. In addition, the absolute oral bioavailability in [3] is reported as 11%; in series [4] it was 5.8%. For the same compound, in series [5], the “apparent volume of distribution” value is listed as 1674 L.

Turning to `COc1cccc(-c2c(C)n(Cc3c(F)cccc3C(F)(F)F)c(=O)n(C[C@H](NCCCC(=O)O)c3ccccc3F)c2=O)c1F` [Compound G201], in [6] (single oral gavage 10 mg/kg), the “general condition, weight and abnormalities during the assay period” value was “no subject-related abnormalities were observed”; the “serum LH change after administration” value is “decreased significantly”; the “time of serum LH minimum after administration” value was found to be 3 h. Moreover, the “serum LH inhibitory effect compared with 30 mg/kg Elagolix Sodium” value in [6] (single oral gavage 10 mg/kg G201) was “slightly higher magnitude of change; also recorded: comparable or superior”. Further, in series [7], the pIC50 is 7.42. In [8] (intravenous injection 25 mg/kg), the t1/2z worked out at 47.4 min, the AUC(0-inf) came to 15700 ng·h/mL, the peak concentration (Cmax) turned out to be 27200 ng/mL and the Tmax worked out at 4.8 min. In addition, in series [8] (intravenous injection 25 mg/kg), the AUC(0-t) was determined as 15700 ng·h/mL, the clearance was 27 mL/min/kg and the Vd turned out to be 1.82 L/kg. Moreover, in series [8] (oral gavage 50 mg/kg), the “oral AUC0-∞ relative to that of Elagolix Sodium” value is “three times”, the t1/2z is 282 min, the AUC(0-inf) is 16400 ng·h/mL and the peak concentration (Cmax) worked out at 17000 ng/mL. Also, in series [8] (oral gavage 50 mg/kg), the Tmax turned out to be 25.2 min and the AUC(0-t) is 16300 ng·h/mL. Further, in series [8], the “F (absolute bioavailability)” value is 51.9% and the bioavailability was found to be 51.9%. Also, in [9] (intravenous injection 10 mg/kg), the CLz was determined as 53 mL/min/kg and the t1/2z was 15.6 min. Besides, the t1/2z in series [9] (oral administration 10 mg/kg) was 25.8 min. Moreover, in [9] (setting [10]), the AUC(0-inf) came out at 3250 ng·h/mL and the AUC(0-t) was 3240 ng·h/mL. The Vd in [9] (female, mouse, plasma, intravenous injection 10 mg/kg, read-out: Vz) was 1.17 L/kg. Further, in series [9] (setting [11]), the area under the curve AUC(0-inf) is 1270 ng·h/mL, the AUC(0-t) is 1010 ng·h/mL, the highest concentration (Cmax) is 2000 ng/mL and the Tmax is 16.2 min. The bioavailability in [9] (female, mouse, plasma, oral administration 10 mg/kg vs intravenous 10 mg/kg, read-out: F (absolute bioavailability)) is 38.9%.

With `COc1cccc(-c2c(C)n(Cc3c(F)cccc3C(F)(F)F)c(=O)n(C[C@H](NCCCC(=O)[O-])c3ccccc3)c2=O)c1F.[Na+]` [Elagolix Sodium, Sodium R-(+)-4-{2-[5-(2-Fluoro-3-methoxyphenyl)-3-(2-fluoro-6-[trifluoromethyl]-benzyl)-4-methyl-2,6-dioxo-3,6-dihydro-2H-pyrimidin-1-yl]-1-phenylethylamino}butyrate, reference compound], in series [6] (single oral gavage 30 mg/kg), the “general condition, weight and abnormalities during the assay period” value is recorded as “no subject-related abnormalities were observed”; the “serum LH change after administration” value is recorded as “decreased significantly”; the “time at which serum LH returned to the pre-administration level” value is reported as 24 h; the “time of serum LH minimum after administration” value came to 3 h. In [8] (intravenous injection 25 mg/kg), the t1/2z came to 130 min, the AUC(0-inf) worked out at 10200 ng·h/mL, the concentration peaked (Cmax) at 15600 ng/mL and the Tmax was 4.8 min. In series [8] (intravenous injection 25 mg/kg), the AUC(0-t) turned out to be 10200 ng·h/mL, the clearance is 41.3 mL/min/kg and the Vd worked out at 8.46 L/kg. In addition, in [8] (oral gavage 50 mg/kg), the t1/2z worked out at 272 min, the AUC(0-inf) stood at 4870 ng·h/mL, the maximum concentration (Cmax) was found to be 4660 ng/mL and the Tmax is 25.2 min. Further, the AUC(0-t) in [8] (oral gavage 50 mg/kg) was 4830 ng·h/mL. Besides, in series [8], the “F (absolute bioavailability)” value was 23.7% and the bioavailability amounted to 23.6%.

The values are drawn from US11884636B2, “Gonadotropin releasing hormone receptor antagonist and use thereof” (SHIJIAZHUANG YILING PHARMACEUTICAL CO., LTD., priority 2020, dated 2024).
